This note sets out measurements from patent US20130261077A1 (priority 2012, published 2013).

For this assay, the target named is T1, FimH-CRD (Escherichia coli, UniProt P08191).
T1 construct: The first 177 amino acids of the FimH protein; thrombin tag (printed as 'fusion protein with thrombin') (cleaved yes); made in house; host or cells: bacteria (pET21b plasmid)
T1 sequence (P08191 22-177): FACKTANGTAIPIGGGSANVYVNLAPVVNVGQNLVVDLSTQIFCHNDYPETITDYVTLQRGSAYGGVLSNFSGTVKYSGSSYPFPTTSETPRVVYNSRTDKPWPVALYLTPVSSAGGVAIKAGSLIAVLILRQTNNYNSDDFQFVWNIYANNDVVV
Kind of assay: Competitive binding assay by fluorescence polarization, assay 2 (compounds prepared by robotics, plates frozen and thawed). As to the method: The first 177 amino acids of the FimH protein were expressed as a fusion protein with thrombin in a pET21b plasmid in bacteria. This FimH protein sequence contains the carbohydrate recognition domain (CRD) and shall be termed FimH-CRD. Following bacterial expression of the protein, the FimH-CRD protein was purified to homogeneity and the thrombin tag removed by protease cleavage. A competitive binding assay by fluorescence polarization was performed using 5 nM of the Alexa 647 mannoside probe and 60 nM of the FimH-CRD. The samples are assayed in a low volume 384 well microtiter plate in a final volume of 20 μl. The final assay buffer conditions are the following, 50 mM Tris-Cl, ph 7.0, 100 mM NaCl, 1 mM EDTA, 5 mM β-mercaptoethanol, 0.05% BSA and 2.5% DMSO. Two assays are performed for FimH, termed assay 1 or assay 2. The assay conditions are the same for both assays except the following: assay 1 has compounds prepared by manual dilution in a serial dilution factor with 12-point dose response while assay 2 has compounds prepared by a robotics system also through a serial dilution factor (12 point dose response) and initially prepared in duplicate in 384 well-Corning polypropylene round bottom plates. The assay 2 plates have compound which is then frozen and must be thawed prior to use. Initially the Alexa 647 probe and the FimH-CRD are added to the assay buffer and then 0.5 μl of test compound (assay 1 or 2) between 0.4 nM to 75 μM final concentration are added (12 point titration with 3-fold serial dilution). Control wells for the Alexa 647 probe are prepared with the same conditions except for the addition of the FimH-CRD protein. Plates are then incubated for 5 hrs at room temperature in the dark and under humid conditions to prevent drying. Plates are read using the SpectraMax Paradigm multi-mode plate reader and the appropriate fluorescent polarization detection cartridge (Alexa-647).
Alexa 647 mannoside probe is prepared using the similar procedure reported for FAM mannoside (Han, Z. et. al., 2010, J. Med. Chem., 53, 4779) and is described in the scheme below.
To a blue colored stirred solution of (2S,3S,4S,5S,6R)-2-(4-aminobutoxy)-6-(hydroxymethyl)tetrahydropyran-3,4,5-triol (2.21 mg, 0.009 mmol) and the (2E)-2-[(2E,4E)-5-[3,3-dimethyl-5-sulfonato-1-(3-sulfonatopropyl)indol-1-ium-2-yl]penta-2,4-dienylidene]-3-[6-(2,5-dioxopyrrolidin-1-yl)oxy-6-oxo-hexyl]-3-methyl-1-(3-sulfonatopropyl)indoline-5-sulfonate (Potassium Ion (3)) (4.9 mg, 0.0044 mmol) in DMF (44 μL) is added Et3N (5.4 mg, 7.0 μL, 0.053 mmol) at RT. The solution is stirred at room temperature over night, concentrated, dissolved in water and purified on 12 g C-18 silica gel cartridge on Isolera system using acetonitrile in water (0 to 40%, 10 CV) and followed by lyophilization to afford Alexa 647 mannoside probe (3.3 mg, 34%) as deep blue solid.
The Kd values of the compounds are determined from dose response curves using twelve concentrations per compound in duplicate. Curves are fitted to data points using Fluorescence Polarization competitive displacement analysis, and Kds are interpolated from the resulting curves using GraphPad Prism software, version […] (GraphPad software Inc., San Diego, Calif., USA).
For the molecule `OC[C@H]1O[C@H](c2cccc(C#Cc3ccccc3)c2)[C@@H](O)[C@@H](O)[C@@H]1O` [Compound 91, (2R,3S,4R,5S,6R)-2-(Hydroxymethyl)-6-[3-(2-phenylethynyl)phenyl]tetrahydropyran-3,4,5-triol], the Kd – broadly, a measure of binding affinity in units of concentration – came out at 23.6 ± 8.7 nM. The molecule `CNC(=O)c1cccc(C#Cc2cccc([C@H]3O[C@H](CO)[C@@H](O)[C@H](O)[C@@H]3O)c2)c1` [Compound 93, N-Methyl-3-[2-[3-[(2R,3S,4R,5S,6R)-3,4,5-trihydroxy-6-(hydroxymethyl)tetrahydropyran-2-yl]phenyl]ethynyl]benzamide] came in with a Kd of 7.5 ± 2.5 nM. `CNC(=O)c1cc(/C=C/Cc2cccc([C@H]3O[C@H](CO)[C@@H](O)[C@H](O)[C@@H]3O)c2)cc(C(=O)NC)c1` [Compound 94, N1,N3-Dimethyl-5-[(E)-3-[3-[(2R,3S,4R,5S,6R)-3,4,5-trihydroxy-6-(hydroxymethyl)tetrahydropyran-2-yl]phenyl]prop-1-enyl]benzene-1,3-dicarboxamide] yielded a Kd of 94.4 ± 13 nM. Against the preceding molecule, the Kd is about 13-fold higher. The result for `OC[C@H]1O[C@H](c2cccc(C/C=C/c3cc(Cl)cc(Cl)c3)c2)[C@@H](O)[C@@H](O)[C@@H]1O` [Compound 95, (2R,3S,4R,5S,6R)-2-[3-[(E)-3-(3,5-Dichlorophenyl)allyl]phenyl]-6-(hydroxymethyl)tetrahydropyran-3,4,5-triol] reads 34 ± 7.8 nM; that for `OC[C@H]1O[C@H](c2cccc(C/C=C/c3ccccc3)c2)[C@@H](O)[C@@H](O)[C@@H]1O` [Compound 96, (2R,3S,4R,5S,6R)-2-[3-[(E)-Cinnamyl]phenyl]-6-(hydroxymethyl)tetrahydropyran-3,4,5-triol], 29 ± 2.3 nM. As for `CNC(=O)c1cc(CCCc2cccc([C@H]3O[C@H](CO)[C@@H](O)[C@H](O)[C@@H]3O)c2)cc(C(=O)NC)c1` [Compound 97, N1,N3-Dimethyl-5-[3-[3-[(2R,3S,4R,5S,6R)-3,4,5-trihydroxy-6-(hydroxymethyl)tetrahydropyran-2-yl]phenyl]propyl]benzene-1,3-dicarboxamide], the affinity, expressed as Kd, was 31.6 ± 17.5 nM.

`OC[C@H]1O[C@H](c2cccc(CCCc3cc(Cl)cc(Cl)c3)c2)[C@@H](O)[C@@H](O)[C@@H]1O` [Compound 98, (2R,3S,4R,5S,6R)-2-[3-[3-(3,5-Dichlorophenyl)propyl]phenyl]-6-(hydroxymethyl)tetrahydropyran-3,4,5-triol] had a Kd of 27.8 ± 2.1 nM. To `OC[C@H]1O[C@H](c2cccc(CCCc3ccccc3)c2)[C@@H](O)[C@@H](O)[C@@H]1O` [Compound 99] belongs 26.4 ± 1.1 nM; to `COC(=O)c1ccc(CCc2ccc([C@H]3O[C@H](CO)[C@@H](O)[C@H](O)[C@@H]3O)cc2)cc1` [Compound 100, Methyl 4-[2-[4-[(2R,3S,4R,5S,6R)-3,4,5-trihydroxy-6-(hydroxymethyl)tetrahydropyran-2-yl]phenyl]ethyl]benzoate], 12 ± 3.1 nM; to `COC(=O)c1cccc(CCc2cccc([C@H]3O[C@H](CO)[C@@H](O)[C@H](O)[C@@H]3O)c2)c1` [Compound 101, Methyl 3-[2-[3-[(2R,3S,4R,5S,6R)-3,4,5-trihydroxy-6-(hydroxymethyl)tetrahydropyran-2-yl]phenyl]ethyl]benzoate], 12.9 ± 9.7 nM.

With `OC[C@H]1O[C@H](c2cccc(CCc3ccccc3)c2)[C@@H](O)[C@@H](O)[C@@H]1O` [Compound 102, (2R,3S,4R,5S,6R)-2-(Hydroxymethyl)-6-[3-(2-phenylethyl)phenyl]tetrahydropyran-3,4,5-triol], binding was put at a Kd of 22 ± 3.4 nM. To `COC(=O)c1ccc(CCc2cccc([C@H]3O[C@H](CO)[C@@H](O)[C@H](O)[C@@H]3O)c2)cc1` [Compound 103, Methyl 4-[2-[3-[(2R,3S,4R,5S,6R)-3,4,5-trihydroxy-6-(hydroxymethyl)tetrahydropyran-2-yl]phenyl]ethyl]benzoate] belongs 9.7 ± 4.5 nM. The molecule `Cc1nnc(-c2ccc(-c3cccc([C@H]4O[C@H](CO)[C@@H](O)[C@H](O)[C@@H]4O)c3C)cc2)o1` [Compound 104, (2R,3S,4R,5S,6R)-2-(Hydroxymethyl)-6-[2-methyl-3-[4-(5-methyl-1,3,4-oxadiazol-2-yl)phenyl]phenyl]tetrahydropyran-3,4,5-triol] showed a Kd of 8.5 ± 3.1 nM. To `CCc1c(-c2ccc(-c3nnc(C)o3)cc2)cccc1[C@H]1O[C@H](CO)[C@@H](O)[C@H](O)[C@@H]1O` [Compound 105, (2R,3S,4R,5S,6R)-2-[2-Ethyl-3-[4-(5-methyl-1,3,4-oxadiazol-2-yl)phenyl]phenyl]-6-(hydroxymethyl)tetrahydropyran-3,4,5-triol] belongs 28.1 ± 3.9 nM; to `Cc1nnc(-c2ccc(-c3cccc([C@H]4O[C@H](CO)[C@@H](O)[C@H](O)[C@@H]4O)c3F)cc2)o1` [Compound 106, (2R,3S,4R,5S,6R)-2-[2-Fluoro-3-[4-(5-methyl-1,3,4-oxadiazol-2-yl)phenyl]phenyl]-6-(hydroxymethyl)tetrahydropyran-3,4,5-triol], 23.4 ± 7.5 nM; to `COc1cc(-c2nnc(C)o2)ccc1-c1cccc([C@H]2O[C@H](CO)[C@@H](O)[C@H](O)[C@@H]2O)c1C` [Compound 107, (2R,3S,4R,5S,6R)-2-(hydroxymethyl)-6-[3-[2-methoxy-4-(5-methyl-1,3,4-oxadiazol-2-yl)phenyl]-2-methyl-phenyl]tetrahydropyran-3,4,5-triol], 9.8 ± 0.6 nM.

Molecule `Cc1c(-c2ccc(-c3ccn(C)n3)cc2)cccc1[C@H]1O[C@H](CO)[C@@H](O)[C@H](O)[C@@H]1O` [Compound 108, (2R,3S,4R,5S,6R)-2-(Hydroxymethyl)-6-[2-methyl-3-[4-(1-methylpyrazol-3-yl)phenyl]phenyl]tetrahydropyran-3,4,5-triol] displayed a Kd of 7.9 ± 2.9 nM. The result for `Cc1c(-c2ccc(S(C)(=O)=O)cc2)cccc1[C@H]1O[C@H](CO)[C@@H](O)[C@H](O)[C@@H]1O` [Compound 109, (2R,3S,4R,5S,6R)-2-(Hydroxymethyl)-6-[2-methyl-3-(4-methylsulfonylphenyl)phenyl]tetrahydropyran-3,4,5-triol] reads 14.4 ± 6.2 nM. To `Cc1c(-c2cccc(S(C)(=O)=O)c2)cccc1[C@H]1O[C@H](CO)[C@@H](O)[C@H](O)[C@@H]1O` [Compound 110, (2R,3S,4R,5S,6R)-2-(Hydroxymethyl)-6-[2-methyl-3-(3-methylsulfonylphenyl)phenyl]tetrahydropyran-3,4,5-triol] belongs 28.9 ± 4.5 nM. The result for `CN(C)Cc1nnc(-c2ccc(-c3cccc([C@H]4O[C@H](CO)[C@@H](O)[C@H](O)[C@@H]4O)c3)cc2)o1` [Compound 113, (2R,3S,4R,5S,6R)-2-[3-[4-[5-[(Dimethylamino)methyl]-1,3,4-oxadiazol-2-yl]phenyl]phenyl]-6-(hydroxymethyl)tetrahydropyran-3,4,5-triol] reads 20.7 ± 4.7 nM. `CC(C)(C)OC(=O)NCc1nnc(-c2ccc(-c3cccc([C@H]4O[C@H](CO)[C@@H](O)[C@H](O)[C@@H]4O)c3)cc2)o1` [Compound 115, tert-Butyl N-[[5-[4-[3-[(2R,3S,4R,5S,6R)-3,4,5-trihydroxy-6-(hydroxymethyl)tetrahydropyran-2-yl]phenyl]phenyl]-1,3,4-oxadiazol-2-yl]methyl]carbamate] yielded a dissociation constant Kd of 24.2 ± 2.9 nM. The result for `Cc1cnc(-c2ccc(-c3cccc([C@H]4O[C@H](CO)[C@@H](O)[C@H](O)[C@@H]4O)c3)cc2)o1` [Compound 117, (2R,3S,4R,5S,6R)-2-(hydroxymethyl)-6-[3-[4-(5-methyloxazol-2-yl)phenyl]phenyl]tetrahydropyran-3,4,5-triol] reads 20.9 ± 6.7 nM; that for `CC(C)c1nnc(-c2ccc(-c3cccc([C@H]4O[C@H](CO)[C@@H](O)[C@H](O)[C@@H]4O)c3)cc2)o1` [Compound 118, (2R,3S,4R,5S,6R)-2-(hydroxymethyl)-6-[3-[4-(5-isopropyl-1,3,4-oxadiazol-2-yl)phenyl]phenyl]tetrahydropyran-3,4,5-triol], 13.1 ± 0.2 nM.
